Results on 7 molecules are retold here after PMC7365685 (ACS chemical biology, 2019).

Substitutions are numbered along the chain they refer to.

Test [1] deals with T1, dopamine D2 receptor (D2R; D2SR; SNAP-D2SR) (Homo sapiens, UniProt P14416). Kind of test: [3H]spiperone competition binding.
The target in test [2] is T2, I122^3.40A D2R (Homo sapiens, UniProt P14416, I122A).
T2 sequence (P14416 1-443 I122A): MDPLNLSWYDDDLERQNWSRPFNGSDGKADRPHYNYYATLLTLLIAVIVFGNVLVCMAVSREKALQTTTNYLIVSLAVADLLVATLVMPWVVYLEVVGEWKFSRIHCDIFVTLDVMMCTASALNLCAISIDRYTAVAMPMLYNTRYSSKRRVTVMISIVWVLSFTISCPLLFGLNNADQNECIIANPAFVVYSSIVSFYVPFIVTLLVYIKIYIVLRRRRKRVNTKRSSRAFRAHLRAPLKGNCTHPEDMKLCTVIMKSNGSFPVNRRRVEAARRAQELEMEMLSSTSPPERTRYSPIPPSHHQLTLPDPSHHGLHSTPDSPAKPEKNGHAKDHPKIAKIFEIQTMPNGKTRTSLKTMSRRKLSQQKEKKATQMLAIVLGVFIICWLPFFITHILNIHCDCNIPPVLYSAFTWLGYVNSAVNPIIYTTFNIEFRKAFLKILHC
As to the kind of experiment: biochemical. Also on record: species or system FlpIn CHO.

The target in test [3] is T3, T119^3.37A D2R (Homo sapiens, UniProt P14416, T119A).
T3 sequence (P14416 1-443 T119A): T2 sequence (P14416 1-443 I122A) with T119A, A122I
Kind of test: biochemical.

Test [4] concerns the target L174^ECL2A D2R (Homo sapiens, UniProt P14416, L174A). Kind of test: biochemical. Details: species or system FlpIn CHO.
For test [5], the target named is dopamine D2 receptor (D2R; D2SR; SNAP-D2SR) (Homo sapiens, UniProt P14416, F110A). Kind of test: biochemical.
Test [6] concerns the target dopamine D2 receptor (D2R; D2SR; SNAP-D2SR) (Homo sapiens, UniProt P14416, S193A). Kind of test: biochemical.
The target in test [7] is N186^ECL2A D2R (Homo sapiens, UniProt P14416, N186A). As to the kind of experiment: biochemical. Also on record: species or system FlpIn CHO.
Test [8] concerns the target S197^5.46A D2R (Homo sapiens, UniProt P14416, S197A). As to the kind of experiment: biochemical.
The target of test [9] is E181^ECL2A D2R (Homo sapiens, UniProt P14416, E181A). Kind of test: biochemical.
For test [10], the target named is T4, V115^3.33A D2R (Homo sapiens, UniProt P14416, V115A).
T4 sequence (P14416 1-443 V115A): T2 sequence (P14416 1-443 I122A) with V115A, A122I
As to the kind of experiment: biochemical.

Test [11] concerns the target T1, dopamine D2 receptor (D2R; D2SR; SNAP-D2SR). As to the kind of experiment: inhibition of forskolin-stimulated cAMP. The note with it: functional affinity; receptor alkylation with phenoxybenzamine. It counts as cell-based.
For test [12], the target named is T5, C118^3.36A D2R (Homo sapiens, UniProt P14416, C118A).
T5 sequence (P14416 1-443 C118A): T2 sequence (P14416 1-443 I122A) with C118A, A122I
As to the kind of experiment: biochemical.

Test [13] concerns the target I183^ECL2A D2R (Homo sapiens, UniProt P14416, I183A). As to the kind of experiment: biochemical.
Test [14] has as its target dopamine D2 receptor (D2R; D2SR; SNAP-D2SR) (Homo sapiens, UniProt P14416, F202A). As to the kind of experiment: biochemical.
Test [15] concerns the target T1, dopamine D2 receptor (D2R; D2SR; SNAP-D2SR). As to the kind of experiment: inhibition of forskolin-stimulated cAMP. Format: cell-based. The note with it: functional affinity (dissociation constant of coupled receptor); partial agonist.

T1 sequence (P14416 1-414 isoform P14416-2): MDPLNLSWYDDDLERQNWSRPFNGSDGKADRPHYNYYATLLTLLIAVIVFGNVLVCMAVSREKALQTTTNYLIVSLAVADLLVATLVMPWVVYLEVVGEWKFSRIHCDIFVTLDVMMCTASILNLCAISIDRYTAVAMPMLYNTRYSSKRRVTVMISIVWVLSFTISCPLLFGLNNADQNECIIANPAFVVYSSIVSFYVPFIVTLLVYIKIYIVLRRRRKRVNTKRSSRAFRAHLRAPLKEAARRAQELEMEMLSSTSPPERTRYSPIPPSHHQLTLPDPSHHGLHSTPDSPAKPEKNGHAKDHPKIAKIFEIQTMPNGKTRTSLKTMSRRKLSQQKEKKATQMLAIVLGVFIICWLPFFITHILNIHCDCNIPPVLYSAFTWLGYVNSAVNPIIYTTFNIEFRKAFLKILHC
dopamine D2 receptor (D2R; D2SR; SNAP-D2SR) (Homo sapiens, UniProt P14416, F202A), sequence (P14416 1-414 isoform P14416-2 F202A): as the sequence (P14416 1-414 isoform P14416-2) above, with F202A counted along it
L174^ECL2A D2R, sequence (P14416 whole entry L174A): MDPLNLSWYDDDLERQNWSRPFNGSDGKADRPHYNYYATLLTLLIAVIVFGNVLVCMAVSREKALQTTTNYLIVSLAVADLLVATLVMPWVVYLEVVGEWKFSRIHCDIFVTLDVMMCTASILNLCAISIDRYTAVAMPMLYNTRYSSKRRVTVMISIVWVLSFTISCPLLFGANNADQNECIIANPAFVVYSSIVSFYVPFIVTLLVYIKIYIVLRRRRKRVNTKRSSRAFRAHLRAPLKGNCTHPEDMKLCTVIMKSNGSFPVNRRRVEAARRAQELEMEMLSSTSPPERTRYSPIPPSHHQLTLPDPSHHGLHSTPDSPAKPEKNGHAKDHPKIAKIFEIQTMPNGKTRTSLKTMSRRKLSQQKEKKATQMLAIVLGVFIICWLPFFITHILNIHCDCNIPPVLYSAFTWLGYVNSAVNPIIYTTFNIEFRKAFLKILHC
dopamine D2 receptor (D2R; D2SR; SNAP-D2SR) (Homo sapiens, UniProt P14416, F110A), sequence (P14416 1-414 isoform P14416-2 F110A): as the sequence (P14416 1-414 isoform P14416-2) above, with F110A counted along it
E181^ECL2A D2R, sequence (P14416 whole entry E181A): as the sequence (P14416 whole entry L174A) above, with A174L, E181A counted along it
N186^ECL2A D2R, sequence (P14416 whole entry N186A): as the sequence (P14416 whole entry L174A) above, with A174L, N186A counted along it
I183^ECL2A D2R, sequence (P14416 whole entry I183A): as the sequence (P14416 whole entry L174A) above, with A174L, I183A counted along it
S197^5.46A D2R, sequence (P14416 whole entry S197A): as the sequence (P14416 whole entry L174A) above, with A174L, S197A counted along it
dopamine D2 receptor (D2R; D2SR; SNAP-D2SR) (Homo sapiens, UniProt P14416, S193A), sequence (P14416 1-414 isoform P14416-2 S193A): as the sequence (P14416 1-414 isoform P14416-2) above, with S193A counted along it

For `CCCCN1CCN(c2cccc(Cl)c2Cl)CC1` [compound 3], in test [1], the Ki was 0.00501 µM.

Take `CCCN(CCC)CCc1cccc2c1CC(=O)N2` [ropinirole]: the inhibitory constant (Ki) in test [2] is 7.76 µM; in test [3], 4.27 µM; in test [4], 2.24 µM; in test [5] it was 42.7 µM; in [6] it was 100 µM; in test [7], 9.77 µM. Also, the Ki in test [8] is 8.51 µM; in test [9], 3.02 µM; in test [1], 6.61 µM; in [10], 18.6 µM; in [12], 3.72 µM; in test [13] it was 3.16 µM. In test [14], this molecule gave a Ki of 12.3 µM. In addition, in [11], the pKA entry was “determine the functional affinity and efficacy of dopamine and ropinirole”.

Turning to `NCCc1ccc(O)c(O)c1` [dopamine], in test [11], the pKA result is “determine the functional affinity and efficacy of dopamine and ropinirole”.

On to `CCCN1CCN(c2cccc(Cl)c2Cl)CC1` [compound 2], for which, in [1], the Ki was 0.0182 µM.

In test [1], `COCCCCN1CCN(c2cccc(Cl)c2Cl)CC1` [compound 4] had a Ki of 0.02 µM.

As for `Clc1cccc(N2CCNCC2)c1Cl` [compound 1, DCPP], in [15], the “cAMP (BRET Biosensor) / pKA” value is listed as 6.49 ± 0.18. The inhibitory constant (Ki) in test [1] was 0.575 µM.

As to `CCCCN1CCN(c2ccccc2OC)CC1` [compound 12], the inhibition constant Ki in test [1] was 0.0933 µM.

By Ki is commonly meant a dissociation constant, usually derived from enzyme kinetics or from competition with a known ligand. Read a low Ki as higher affinity.
